Measurements from paper PMC7009786 (ACS biomaterials science & engineering, 2018).

Experiments:
[1] = tested on: ES-2 cells; experiment: Cell viability after 72 h incubation; type: cell-based; conditions: ES-2 (Pt-sensitive), 18.4 μM, mean of N=3, Pt-NLS purity 87%
[2] = tested on: TOV-21G cells; experiment: Cell viability after 72 h incubation; type: cell-based; conditions: TOV-21G (Pt-sensitive), 56.6 μM, mean of N=3, Pt-NLS purity 87%
[3] = tested on: ovarian cancer-derived cell lines; type: cell-based
[4] = after 150 days; cited from earlier work

## PKKKRKV [Pt-NLS hybrid]
[1]
  decrease of cell viability: ~ 30%
[2]
  decrease of cell viability: ~ 50%
[3]
  cytotoxicity in vitro (in words): high cytotoxicity, significantly superior to carboplatin

## N.N.O=C([O-])C1(C(=O)[O-])CCC1.[Pt+2] [carboplatin, Carboplatin]
[1]
  decrease of cell viability: 20%
[2]
  decrease of cell viability: 40%
[4]
  hydrolysed species: 3%

## O=C1[O][Pt]2([NH][C@@H]3CCCC[C@H]3[NH]2)[O]C1=O [oxaliplatin]
[4]
  hydrolysed species: 3%
